Molecular target: T1, human glucagon receptor (Homo sapiens, UniProt P47871)
T1 construct: made in house; host or cells: FreeStyle CHO cells, transient transfection with pMSRαneo/hGCGR; membrane fraction (35,000 rpm pellet)
Experiment: Glucagon binding inhibitory activity ([125I]-glucagon binding to glucagon receptor membrane protein)
Conditions: test compound 10 μM; 0.4% DMSO = 0%, non-labeled glucagon 1 μM = 100%; read-out: inhibitory rate (%) at 10 μM
Outline: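 Receptor source was a membrane fraction of transiently transfected CHO cells bearing human receptor; 90 min room-temperature binding, filtration harvest, scintillation counting.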

T1 sequence (P47871 26-477): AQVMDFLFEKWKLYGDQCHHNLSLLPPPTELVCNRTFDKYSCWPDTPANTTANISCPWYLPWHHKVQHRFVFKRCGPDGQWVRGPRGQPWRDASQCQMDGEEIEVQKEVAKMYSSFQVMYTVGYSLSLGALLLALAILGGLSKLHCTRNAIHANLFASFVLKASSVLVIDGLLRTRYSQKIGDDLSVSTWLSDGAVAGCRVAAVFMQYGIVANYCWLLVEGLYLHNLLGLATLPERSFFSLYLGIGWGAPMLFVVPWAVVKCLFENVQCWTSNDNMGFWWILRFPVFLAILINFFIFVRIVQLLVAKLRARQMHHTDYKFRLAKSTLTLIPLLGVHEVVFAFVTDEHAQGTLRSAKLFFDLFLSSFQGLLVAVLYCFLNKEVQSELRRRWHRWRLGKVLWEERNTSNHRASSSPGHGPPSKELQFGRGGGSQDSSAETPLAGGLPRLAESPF

Row | Structure (SMILES) | inhibition at 10 µM [%]
1 | Cc1c(C(Nc2ccc(C(=O)N(C)CCC(=O)O)cc2)C2CCCCC2)oc2ccc(Cl)nc12 (stereo not shown) [Example A128, 3-{[(4-{[(5-chloro-3-methylfuro[3,2-b]pyridin-2-yl)(cyclohexyl)methyl]amino}phenyl)carbonyl](methyl)amino}-propanoic acid] | 83
2 | Cc1c(C(Nc2ccc(C(=O)N(C)CCC(=O)O)cc2)C2CCCCC2)oc2ccc(NC(=O)c3ccccc3)cc12 (stereo not shown) [Example A129, 3-[({4-[(cyclohexyl{3-methyl-5-[(phenylcarbonyl)amino]-1-benzofuran-2-yl]methyl)amino}phenyl]carbonyl)(methyl)amino}propanoic acid] | 82
3 | Cc1c(C(Nc2ccc(C(=O)N(C)CCC(=O)O)cc2)C2CCCCC2)oc2ccc(NS(=O)(=O)c3ccccc3)cc12 (stereo not shown) [Example A130, 3-[({4-[(cyclohexyl{3-methyl-5-[(phenylsulfonyl)amino]-1-benzofuran-2-yl}methyl)amino]phenyl}carbonyl)(methyl)amino]propanoic acid] | 76
4 | Cc1c(C(Nc2ccc(C(=O)N(C)CCC(=O)O)cc2)C2CCCCC2)oc2ccc(NCc3ccccc3)cc12 (stereo not shown) [Example A131, 3-[{[4-({[5-(benzylamino)-3-methyl-1-benzofuran-2-yl](cyclohexyl)methyl}amino)phenyl]carbonyl}(methyl)amino]-propanoic acid] | 87
5 | COCCOCc1c(C(Nc2ccc(C(=O)NCCC(=O)O)cc2)C2CCCCC2)oc2ccc(F)cc12 (stereo not shown) [Example A132, 3-[({4-[(cyclohexyl{5-fluoro-3-[(2-methoxyethoxy)methyl]-1-benzofuran-2-yl}methyl)amino]phenyl}carbonyl)amino]propanoic acid] | 83
6 | COCCOCc1c(C(Nc2ccc(C(=O)N(C)CCC(=O)O)cc2)C2CCCCC2)oc2ccc(F)cc12 (stereo not shown) [Example A133, 3-[({4-[(cyclohexyl{5-fluoro-3-[(2-methoxyethoxy)methyl]-1-benzofuran-2-yl}methyl)amino]phenyl}carbonyl)(methyl)amino]propanoic acid] | 80
7 | CCC(CC)C(Nc1ccc(C(=O)NCCC(=O)O)cc1)c1sc2ccccc2c1C (stereo not shown) [Example A134, 3-{[(4-{[2-ethyl-1-(3-methyl-1-benzothiophene-2-yl)butyl]amino}phenyl)carbonyl]amino}propanoic acid] | 82
8 | CCC(CC)C(Nc1ccc(C(=O)N(C)CCC(=O)O)cc1)c1sc2ccccc2c1C (stereo not shown) [Example A135, 3-{[(4-{[2-ethyl-1-(3-methyl-1-benzothiophen-2-yl)butyl]amino}phenyl)carbonyl](methyl)amino}propanoic acid] | 76
9 | Cc1c(C(Nc2ccc(C(=O)N(C)CCC(=O)O)cc2)C2CCCCC2)sc2cnccc12 (stereo not shown) [Example A136, 3-{[(4-{[cyclohexyl(3-methylthieno[2,3-c]pyridin-2-yl)methyl]amino}phenyl)carbonyl](methyl)amino}propanoic acid] | 62
10 | Cc1c(C(Nc2ccc(C(=O)NCCC(=O)O)cc2)C2CCCCC2)sc2cnccc12 (stereo not shown) [Example A137, 3-{[(4-{[cyclohexyl(3-methylthieno[2,3-c]pyridin-2-yl)methyl]amino}phenyl)carbonyl]amino}propanoic acid] | 75
11 | Cc1c(C(Nc2ccc(C(=O)NCCC(=O)O)cc2)C2CCCCC2)sc2ccncc12 (stereo not shown) [Example A138, 3-{[(4-{[cyclohexyl(3-methylthieno[3,2-c]pyridin-2-yl)methyl]amino}phenyl)carbonyl]amino}propanoic acid] | 85
12 | Cc1c(C(Nc2ccc(C(=O)N(C)CCC(=O)O)cc2)C2CCCCC2)sc2ccncc12 (stereo not shown) [Example A139, 3-{[(4-{[cyclohexyl(3-methylthieno[3,2-c]pyridin-2-yl)methyl]amino}phenyl)carbonyl](methyl)amino}propanoic acid] | 76
13 | CCCCCCC(Nc1ccc(C(=O)NCCC(=O)O)cc1)c1cc2cc(Cl)ccc2n1C (stereo not shown) [Example A140, 3-{[(4-{[1-(5-chloro-1-methyl-1H-indol-2-yl)heptyl]amino}phenyl)carbonyl]amino}propanoic acid] | 83
14 | CCCCCCC(Nc1ccc(C(=O)N(C)CCC(=O)O)cc1)c1cc2cc(Cl)ccc2n1C (stereo not shown) [Example A141, 3-{[(4-{[1-(5-chloro-1-methyl-1H-indol-2-yl)heptyl]amino}phenyl)carbonyl](methyl)amino}propanoic acid] | 86

Next, values leading:

Row | inhibition at 10 µM [%] | Structure (SMILES)
15 | 87 | Cc1c(C(Nc2ccc(C(=O)NCCC(=O)O)cc2)C2CCCCC2)sc2ncccc12 (stereo not shown) [Example A142, 3-{[(4-{[cyclohexyl(3-methylthieno[2,3-b]pyridin-2-yl)methyl]amino}phenyl)carbonyl]amino}propanoic acid]
16 | 75 | Cc1c(C(Nc2ccc(C(=O)N(C)CCC(=O)O)cc2)C2CCCCC2)sc2ncccc12 (stereo not shown) [Example A143, 3-{[(4-{[cyclohexyl(3-methylthieno[2,3-b]pyridin-2-yl)methyl]amino}phenyl)carbonyl](methyl)amino}propanoic acid]
17 | 82 | Cc1c(C(Nc2ccc(C(=O)NCCC(=O)O)cc2)C2CCCCC2)sc2cccnc12 (stereo not shown) [Example A144, 3-{[(4-{[cyclohexyl(3-methylthieno[3,2-b]pyridin-2-yl)methyl]amino}phenyl)carbonyl]amino}propanoic acid]
18 | 76 | Cc1c(C(Nc2ccc(C(=O)N(C)CCC(=O)O)cc2)C2CCCCC2)sc2cccnc12 (stereo not shown) [Example A145, 3-{[(4-{[cyclohexyl(3-methylthieno[3,2-b]pyridin-2-yl)methyl]amino}phenyl)carbonyl](methyl)amino}propanoic acid]
19 | 77 | Cc1c(C(Nc2ccc(C(=O)N(C)CCC(=O)O)cc2)C2CCCCC2)sc2cc(C(F)(F)F)cnc12 (stereo not shown) [Example A146, 3-[{[4-({cyclohexyl[3-methyl-6-(trifluoromethyl)thieno[3,2-b]pyridin-2-yl]methyl}amino)phenyl]carbonyl}(methyl)amino]propanoic acid]
20 | 99 | CSCCOc1ccc2oc(C(Nc3ccc(C(=O)N(C)CCC(=O)O)cc3)C3CCCCC3)c(C)c2c1 (stereo not shown) [Example A147, 3-[({4-[(cyclohexyl{3-methyl-5-[2-(methylthio)ethoxy]-1-benzofuran-2-yl}methyl)amino]phenyl}carbonyl)(methyl)amino]propanoic acid]
21 | 94 | CSCCOc1ccc2oc(C(Nc3ccc(C(=O)NCCC(=O)O)cc3)C3CCCCC3)c(C)c2c1 (stereo not shown) [Example A148, 3-[({4-[(cyclohexyl{3-methyl-5-[2-(methylthio)ethoxy]-1-benzofuran-2-yl}methyl)amino]phenyl}carbonyl)amino]propanoic acid]
22 | 69 | COCCOc1ccc2oc(C(Nc3ccc(C(=O)NCCC(=O)O)cc3)C3CCCCC3)c(C)c2c1 (stereo not shown) [Example A149, 3-[{[4-({cyclohexyl[5-(2-methoxyethoxy)-3-methyl-1-benzofuran-2-yl]methyl}amino)phenyl]carbonyl}amino]propanoic acid]
23 | 81 | CSCCCOc1ccc2oc(C(Nc3ccc(C(=O)N(C)CCC(=O)O)cc3)C3CCCCC3)c(C)c2c1 (stereo not shown) [Example A150, 3-[({4-[(cyclohexyl{3-methyl-5-[3-(methylsulfanyl)propoxy]-1-benzofuran-2-yl}methyl)amino]phenyl}carbonyl)(methyl)amino]propanoic acid]
24 | 78 | CSCCCOc1ccc2oc(C(Nc3ccc(C(=O)NCCC(=O)O)cc3)C3CCCCC3)c(C)c2c1 (stereo not shown) [Example A151, 3-[({4-[(cyclohexyl{3-methyl-5-[3-(methylsulfanyl)propoxy]-1-benzofuran-2-yl}methyl)amino]phenyl}carbonyl)amino]propanoic acid]
25 | 76 | Cc1c(C(Nc2ccc(C(=O)N(C)CCC(=O)O)cc2)C2CCCCC2)oc2ccc(OCCCS(C)(=O)=O)cc12 (stereo not shown) [Example A152, 3-[({4-[(cyclohexyl{3-methyl-5-[3-(methylsulfonyl)propoxy]-1-benzofuran-2-yl}methyl)amino]phenyl}carbonyl)(methyl)amino]propanoic acid]
26 | 74 | Cc1c(C(Nc2ccc(C(=O)NCCC(=O)O)cc2)C2CCCCC2)oc2ccc(OCCCS(C)(=O)=O)cc12 (stereo not shown) [Example A153, 3-[({4-[(cyclohexyl{3-methyl-5-[3-(methylsulfonyl)propoxy]-1-benzofuran-2-yl}methyl)amino]phenyl}carbonyl)amino]propanoic acid]
27 | 82 | Cc1c(C(Nc2ccc(C(=O)N(C)CCC(=O)O)cc2)C2CCCCC2)oc2ccc(OCc3ccccc3)cc12 (stereo not shown) [Example A154, 3-[{[4-({[5-(benzyloxy)-3-methyl-1-benzofuran-2-yl](cyclohexyl)methyl}amino)phenyl]carbonyl}(methyl)amino]-propanoic acid]
28 | 81 | Cc1c(C(Nc2ccc(C(=O)N(C)CCC(=O)O)cc2)C2CCCCC2)oc2ccc(OCc3ccccn3)cc12 (stereo not shown) [Example A155, 3-[{[4-({cyclohexyl[3-methyl-5-(pyridin-2-ylmethoxy)-1-benzofuran-2-yl]methyl}amino)phenyl]carbonyl}(methyl)amino]propanoic acid]
29 | 80 | Cc1c(C(Nc2ccc(C(=O)N(C)CCC(=O)O)cc2)C2CCCCC2)oc2ccc(OCc3cccnc3)cc12 (stereo not shown) [Example A156, 3-[{[4-({cyclohexyl[3-methyl-5-(pyridin-3-ylmethoxy)-1-benzofuran-2-yl]methyl}amino)phenyl]carbonyl}(methyl)amino]propanoic acid]
30 | 80 | Cc1c(C(Nc2ccc(C(=O)N(C)CCC(=O)O)cc2)C2CCCCC2)oc2ccc(OCc3ccncc3)cc12 (stereo not shown) [Example A157, 3-[{[4-({cyclohexyl[3-methyl-5-(pyridin-4-ylmethoxy)-1-benzofuran-2-yl]methyl}amino)phenyl]carbonyl}(methyl)amino]propanoic acid]
31 | 79 | Cc1c(C(Nc2ccc(C(=O)NCCC(=O)O)cc2)C2CCCCC2)oc2ccc(OCc3ccccc3)cc12 (stereo not shown) [Example A158, 3-({[4-({[5-(benzyloxy)-3-methyl-1-benzofuran-2-yl](cyclohexyl)methyl}amino)phenyl]carbonyl}amino)propanoic acid]

From patent US8436043B2 (Takeda Pharmaceutical Company Limited, priority 2008, dated 2013)
